PubChem BioAssay AID1918996 (Molecular Pharmacology Branch, DTP, NCI, 2023)
pIC50: −log10 of the molar value.

Tested on: 349418-098-R-PDC complex spheroid growth
Test: Anticancer human tumor 349418-098-R-PDC patient-derived lung adenocarcinoma cell line growth inhibition [AhR]
Conditions: for pIC50: curve of first compound; for viability, T/C: stronger effect = lower value
Outline: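 Agents were dosed in half-log steps down from roughly clinical Cmax, or from 10 microM where Cmax was unknown, alone and with AhR antagonists. Read-out: percent test/control growth of tumor spheroids containing HUVEC and MSC stromal cells.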

[1] = second compound 0.1 µM, first compound 0.0316 µM
[2] = second compound 0.1 µM, first compound 0.1 µM
[3] = second compound 0.1 µM, first compound 0.316 µM
[4] = second compound 0.1 µM, first compound 1 µM
[5] = second compound 0.1 µM, first compound 3.16 µM
[6] = second compound 0.1 µM, first compound 10 µM
[7] = second compound 0.316 µM, first compound 0.0316 µM
[8] = second compound 0.316 µM, first compound 0.1 µM
[9] = second compound 0.316 µM, first compound 0.316 µM
[10] = second compound 0.316 µM, first compound 1 µM
[11] = second compound 0.316 µM, first compound 3.16 µM
[12] = second compound 0.316 µM, first compound 10 µM
[13] = second compound 1 µM, first compound 0.0316 µM
[14] = second compound 1 µM, first compound 0.1 µM
[15] = second compound 1 µM, first compound 0.316 µM
[16] = second compound 1 µM, first compound 1 µM
[17] = second compound 1 µM, first compound 3.16 µM
[18] = second compound 1 µM, first compound 10 µM
[19] = second compound 3.16 µM, first compound 0.0316 µM
[20] = second compound 3.16 µM, first compound 0.1 µM
[21] = second compound 3.16 µM, first compound 0.316 µM
[22] = second compound 3.16 µM, first compound 1 µM
[23] = second compound 3.16 µM, first compound 3.16 µM
[24] = second compound 3.16 µM, first compound 10 µM
[25] = second compound 10 µM, first compound 0.0316 µM
[26] = second compound 10 µM, first compound 0.1 µM
[27] = second compound 10 µM, first compound 0.316 µM
[28] = second compound 10 µM, first compound 1 µM
[29] = second compound 10 µM, first compound 3.16 µM
[30] = second compound 10 µM, first compound 10 µM
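Also: spheroids exposed to agents for seven days before luminescence viability read.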
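For viability, T/C in this document: spheroids also contain HUVEC endothelial cells and human MSC stroma.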

SMILES	pIC50 (second compound 0.1 µM)	pIC50 (second compound 0.316 µM)	pIC50 (second compound 1 µM)	pIC50 (second compound 3.16 µM)	pIC50 (second compound 10 µM)	viability, T/C [1]	viability, T/C [2]	viability, T/C [3]	viability, T/C [4]	viability, T/C [5]	viability, T/C [6]	viability, T/C [7]	viability, T/C [8]	viability, T/C [9]	viability, T/C [13]	viability, T/C [14]	viability, T/C [19]	viability, T/C [20]	viability, T/C [25]	viability, T/C [26]	further results
COc1cc(Nc2ncc3c(n2)-c2ccc(Cl)cc2C(c2c(F)cccc2OC)=NC3)ccc1C(=O)O + Cc1cncc(-c2nc(NCCc3c[nH]c4ccccc34)c3ncn(C(C)C)c3n2)c1	6.71	6.62	6.57	> 7.50	> 7.50	68.8%	58.2%	42.4%	40.8%	36.3%	33.1%	72.6%	68.6%	44.4%	67.7%	57.3%	19.7%	20%	3.34%	2.89%	viability, T/C [10]: 47.8%; viability, T/C [11]: 41.1%; viability, T/C [12]: 43.9%; viability, T/C [15]: 46.7%; viability, T/C [16]: 48.8%; viability, T/C [17]: 40.3%; viability, T/C [18]: 44.8%; viability, T/C [21]: 14.1%; viability, T/C [22]: 12.7%; viability, T/C [23]: 14.7%; viability, T/C [24]: 17.9%; viability, T/C [27]: 2.53%; viability, T/C [28]: 2.17%; viability, T/C [29]: 2.59%; viability, T/C [30]: 3.53%
Cn1ncnc1C1c2n[nH]c(=O)c3cc(F)cc(c23)NC1c1ccc(F)cc1 (stereo not given) + Cc1cncc(-c2nc(NCCc3c[nH]c4ccccc34)c3ncn(C(C)C)c3n2)c1	< 7.00	< 7.00	< 7.00	> 9.50	> 9.50	82.5%	80.6%	–	–	–	–	85.6%	78.5%	–	78.8%	78.4%	25.5%	21.6%	2.36%	2.64%	viability, T/C (second compound 0.1 µM, first compound 0.000316 µM): 94.4%; viability, T/C (second compound 0.1 µM, first compound 0.001 µM): 93.9%; viability, T/C (second compound 0.1 µM, first compound 0.00316 µM): 92.2%; viability, T/C (second compound 0.1 µM, first compound 0.01 µM): 87.8%; viability, T/C (second compound 0.316 µM, first compound 0.000316 µM): 90.1%; viability, T/C (second compound 0.316 µM, first compound 0.001 µM): 98%; viability, T/C (second compound 0.316 µM, first compound 0.00316 µM): 85.7%; viability, T/C (second compound 0.316 µM, first compound 0.01 µM): 88%; viability, T/C (second compound 1 µM, first compound 0.000316 µM): 86.7%; viability, T/C (second compound 1 µM, first compound 0.001 µM): 81.6%; viability, T/C (second compound 1 µM, first compound 0.00316 µM): 89.8%; viability, T/C (second compound 1 µM, first compound 0.01 µM): 78.2%; viability, T/C (second compound 3.16 µM, first compound 0.000316 µM): 17.9%; viability, T/C (second compound 3.16 µM, first compound 0.001 µM): 23.4%; viability, T/C (second compound 3.16 µM, first compound 0.00316 µM): 23.8%; viability, T/C (second compound 3.16 µM, first compound 0.01 µM): 19.4%; viability, T/C (second compound 10 µM, first compound 0.000316 µM): 2.6%; viability, T/C (second compound 10 µM, first compound 0.001 µM): 2.33%; viability, T/C (second compound 10 µM, first compound 0.00316 µM): 3.01%; viability, T/C (second compound 10 µM, first compound 0.01 µM): 2.42%
NS(=O)(=O)OCC1CC(n2ccc3c(NC4CCc5ccccc54)ncnc32)CC1O (stereo not given) + Cc1cncc(-c2nc(NCCc3c[nH]c4ccccc34)c3ncn(C(C)C)c3n2)c1	6.72	6.79	6.85	> 7.50	> 7.50	101%	69.6%	35.1%	14.4%	9.84%	4.65%	89.1%	71.6%	19%	86.2%	63.3%	28.4%	26.2%	2.2%	1.97%	viability, T/C [10]: 12.2%; viability, T/C [11]: 6.13%; viability, T/C [12]: 4.07%; viability, T/C [15]: 19.2%; viability, T/C [16]: 12.1%; viability, T/C [17]: 6.14%; viability, T/C [18]: 4.69%; viability, T/C [21]: 18.7%; viability, T/C [22]: 7.99%; viability, T/C [23]: 3.97%; viability, T/C [24]: 3.43%; viability, T/C [27]: 1.34%; viability, T/C [28]: 0.88%; viability, T/C [29]: 1.03%; viability, T/C [30]: 0.56%
O=C(C=Cc1cccc(S(=O)(=O)Nc2ccccc2)c1)NO + Cc1cncc(-c2nc(NCCc3c[nH]c4ccccc34)c3ncn(C(C)C)c3n2)c1	6.17	6.28	6.22	> 7.50	> 7.50	90.6%	79.1%	67.8%	43.2%	13.2%	1.82%	85.2%	68.9%	59.3%	76.4%	75.8%	30.8%	34.8%	3.17%	3.68%	viability, T/C [10]: 43.5%; viability, T/C [11]: 11.3%; viability, T/C [12]: 1.83%; viability, T/C [15]: 61.1%; viability, T/C [16]: 41.3%; viability, T/C [17]: 10.3%; viability, T/C [18]: 1.94%; viability, T/C [21]: 37.9%; viability, T/C [22]: 22.7%; viability, T/C [23]: 7.91%; viability, T/C [24]: 1.33%; viability, T/C [27]: 2.97%; viability, T/C [28]: 1.98%; viability, T/C [29]: 1.53%; viability, T/C [30]: 0.75%
